Measurements as given in the supplement of paper PMC10307832.

What was measured:
Experiment in all cases: relative viability (nuclei count vs DMSO), 5 days (fraction); higher = more cells survive
Idelalisib + Navitoclax = compound: CC[C@H](Nc1ncnc2[nH]cnc12)c1nc2cccc(F)c2c(=O)n1-c1ccccc1 [Idelalisib] + CC1(C)CCC(c2ccc(Cl)cc2)=C(CN2CCN(c3ccc(C(=O)NS(=O)(=O)c4ccc(N[C@H](CCN5CCOCC5)CSc5ccccc5)c(S(=O)(=O)C(F)(F)F)c4)cc3)CC2)C1 [Navitoclax] (partner 0.5 µM)
How it was run: (§1)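 Medians of duplicate plates are given as relative viability. That measure is the nuclei count in treated wells divided by the count in vehicle wells. Counts were taken on 4× images of lung cancer cell lines in 1536-well plates, 5 days after pin-tool dosing the day after seeding with one drug alone or a fixed anchor-drug dose plus five library-drug doses (not always all listed) in √10 steps.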

Idelalisib + Crizotinib = compound: CC[C@H](Nc1ncnc2[nH]cnc12)c1nc2cccc(F)c2c(=O)n1-c1ccccc1 [Idelalisib] + C[C@@H](Oc1cc(-c2cnn(C3CCNCC3)c2)cnc1N)c1c(Cl)ccc(F)c1Cl [Crizotinib] (partner 1 µM)
How it was run: as §1

Pemetrexed + OSI-027 = compound: Nc1nc2[nH]cc(CCc3ccc(C(=O)N[C@@H](CCC(=O)O)C(=O)O)cc3)c2c(=O)[nH]1 [Pemetrexed] + COc1cccc2cc(-c3nc([C@H]4CC[C@H](C(=O)O)CC4)n4ncnc(N)c34)[nH]c12 [OSI-027] (partner 0.5 µM)
How it was run: as §1

Pemetrexed + Dasatinib = compound: Nc1nc2[nH]cc(CCc3ccc(C(=O)N[C@@H](CCC(=O)O)C(=O)O)cc3)c2c(=O)[nH]1 [Pemetrexed] + Cc1nc(Nc2ncc(C(=O)Nc3c(C)cccc3Cl)s2)cc(N2CCN(CCO)CC2)n1 [Dasatinib] (partner 0.075 µM)
How it was run: as §1

Cell Line: UMC-11
- relative viability (Idelalisib + Navitoclax; first compound 0.04 µM): 0.366
- relative viability (Idelalisib + Navitoclax; first compound 0.1265 µM): 0.326
- relative viability (Idelalisib + Navitoclax; first compound 0.4 µM): 0.274
- relative viability (Idelalisib + Navitoclax; first compound 1.265 µM): 0.291
- relative viability (Idelalisib + Navitoclax; first compound 4 µM): 0.336
- relative viability (Idelalisib + Crizotinib; first compound 0.04 µM): 0.708
- relative viability (Idelalisib + Crizotinib; first compound 0.1265 µM): 0.694
- relative viability (Idelalisib + Crizotinib; first compound 0.4 µM): 0.583
- relative viability (Idelalisib + Crizotinib; first compound 1.265 µM): 0.541
- relative viability (Idelalisib + Crizotinib; first compound 4 µM): 0.57
- relative viability (Pemetrexed + OSI-027; first compound 0.002 µM): 0.501
- relative viability (Pemetrexed + OSI-027; first compound 0.006325 µM): 0.482
- relative viability (Pemetrexed + OSI-027; first compound 0.02 µM): 0.481
- relative viability (Pemetrexed + OSI-027; first compound 0.06325 µM): 0.522
- relative viability (Pemetrexed + OSI-027; first compound 0.2 µM): 0.487
- relative viability (Pemetrexed + Dasatinib; first compound 0.002 µM): 0.483
- relative viability (Pemetrexed + Dasatinib; first compound 0.006325 µM): 0.451
- relative viability (Pemetrexed + Dasatinib; first compound 0.02 µM): 0.468
- relative viability (Pemetrexed + Dasatinib; first compound 0.06325 µM): 0.442
- relative viability (Pemetrexed + Dasatinib; first compound 0.2 µM): 0.474
